# Where two headings read alike, the source gives them in different places. Ends that are not written are not given here.
# T1: CD151 (Homo sapiens, UniProt P48509)
# T1 construct: from tissue; host or cells: homogenates of Matrigel implants with NCI-H460 cells, and NCI-H460 xenografts, from Swiss nu/nu mice
# T1 sequence (P48509 1-253): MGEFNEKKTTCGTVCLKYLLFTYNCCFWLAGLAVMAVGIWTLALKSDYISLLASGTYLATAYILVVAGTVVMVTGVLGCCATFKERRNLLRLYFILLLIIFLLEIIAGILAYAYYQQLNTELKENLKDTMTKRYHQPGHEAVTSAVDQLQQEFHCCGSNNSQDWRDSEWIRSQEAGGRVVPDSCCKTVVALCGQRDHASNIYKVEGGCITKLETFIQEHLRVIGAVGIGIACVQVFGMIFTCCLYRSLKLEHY
# T2: CD9P-1 (Homo sapiens, UniProt Q9P2B2)
# T2 construct: from tissue; host or cells: homogenates of Matrigel implants with NCI-H460 cells, and NCI-H460 xenografts, from Swiss nu/nu mice
# T2 sequence (Q9P2B2 26-879): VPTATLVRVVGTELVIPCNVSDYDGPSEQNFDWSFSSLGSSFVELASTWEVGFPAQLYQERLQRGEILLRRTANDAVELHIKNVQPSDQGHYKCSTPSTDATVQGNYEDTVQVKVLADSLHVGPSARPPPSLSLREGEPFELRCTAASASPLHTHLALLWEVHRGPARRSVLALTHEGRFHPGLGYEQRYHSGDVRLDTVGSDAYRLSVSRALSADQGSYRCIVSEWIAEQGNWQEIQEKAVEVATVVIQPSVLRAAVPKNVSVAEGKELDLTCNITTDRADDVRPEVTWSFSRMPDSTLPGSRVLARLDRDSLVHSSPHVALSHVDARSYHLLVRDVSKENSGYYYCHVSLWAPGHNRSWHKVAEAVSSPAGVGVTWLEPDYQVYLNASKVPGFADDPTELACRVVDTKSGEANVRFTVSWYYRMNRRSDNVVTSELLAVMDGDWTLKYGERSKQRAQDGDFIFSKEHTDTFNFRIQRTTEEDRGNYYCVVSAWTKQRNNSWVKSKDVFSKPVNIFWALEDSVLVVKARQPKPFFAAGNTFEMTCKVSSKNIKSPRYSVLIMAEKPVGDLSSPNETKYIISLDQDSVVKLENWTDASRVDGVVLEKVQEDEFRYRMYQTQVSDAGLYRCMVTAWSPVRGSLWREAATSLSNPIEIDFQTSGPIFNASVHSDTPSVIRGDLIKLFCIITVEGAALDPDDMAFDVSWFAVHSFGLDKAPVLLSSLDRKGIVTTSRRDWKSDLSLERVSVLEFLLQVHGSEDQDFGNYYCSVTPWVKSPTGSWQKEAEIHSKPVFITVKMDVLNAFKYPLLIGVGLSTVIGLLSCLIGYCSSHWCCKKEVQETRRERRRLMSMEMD
# Tests used:
# [1] = system: Matrigel® implants enriched in NCI-H460 cells; experiment: Angiogenesis test in vivo (Matrigel implants, hemoglobin); design: species or system mice; conditions: 10 mg/kg intraperitoneal daily for 12 days; for color of implants: implants collected day 13
# Description: Implants of Matrigel® represent an in vivo model of angiogenesis. NCI-H460 cells are used to provide growth factors necessary for blood vessels formation within the Matrigel® matrix. The mixture was then injected sub-cutanously in the Swiis nu/nu mice. Daily treatments with the peptides (1 mg/mL) were performed by injections intraperitoneally. Implants were collected after 12 days.
# The dosage of hemoglobin in implants was used as an indicator of the vessels of the implant. The implants were weighted and crushed.
# An in vivo model of angiogenesis as described in Passaniti et al. (1992 Experimental gerontology 27, 559-566) was utilized to evaluate the effect of P3 and P4. Briefly, cancer cells were incorporated into Matrigel®, cancer cells provide growth and angiogenic factors necessary for blood vessel formation. The mixture was injected immediately under a sub-cutaneous form of the mice flanks. The day following the inoculation, 20 mice (Swiss nu-nu) were randomized in 4 groups containing 5 mice each and the treatments started as follows: mice of group 1 were treated by 200 μL/injection/day of solvent alone for 12 successive days; mice of group 2 were treated by 200 μL/injection of a P1 solution (1 mg/mL) in a solvent/injection/day for 12 successive days; mice of group 3 were treated by 200 μL of a P3 solution (1 mg/mL) in a solvent/injection/day for 12 successive days; mice of group 4 were treated by 200 μL of a P4 solution (1 mg/mL) in a solvent/injection/day for 12 successive days.
# [2] = system: HUVECs; experiment: Cellular proliferation test (MTT) on HUVECs; format: cell-based, human; conditions: 48 h
# Description: Evaluation of cellular proliferation was performed using 4,5-diMethylThiazol-2-yl)-2,5 diphenylTetrazolium bromide (MTT) test. After 18 hrs of culture, the media was changed by EBM2 supplemented with gentamycine and 5% SVF. Different concentrations of peptides were added under a volume of 10 μL/well. Cells were incubated for 48 hrs at 37° C. MTT was added (50 μL/well) to the cells for 3 hrs.
# Cells were grown for 48 h in EGM2-MV and proliferation was quantified by MTT assay.
# [3] = mouse, in vivo
# Description: (§3) Swiss nu/nu female mice aged 5-6 weeks were anesthetized with xylazine (12 mg/kg) and ketamine (80 mg/kg). Tumor cells (NCI-H460 or UMUC-3) were implanted sub-cutanously in the mice flanks. […] Tumor sizes were measured and tumor volume was calculated. Mice were weighted to detect symptoms of pain.
# In parallel, to investigate the toxic effect of peptides tested on mice, the mice weights were measured along the treatment.
# [4] = system: NCI-H460 cells; conditions: 13 days; for average tumoral volume: Example 6, n=5
# Description: as §3
# Evaluating the effect of the peptides on tumor growth in vivo was performed. Cancer cells NCI-H460 were injected by sub-cutaneous administration in the Swiss-nu/nu mice flanks (n=20). 10 days following inoculation of tumor cells, mice were randomized in 2 groups of 5 mice. Mice of different groups were treated as follow: mice of group 1 were treated with solvent (200 μL/injection/48 hrs); mice of group 2 were treated with P3 (200 μL of 1 mg/mL of P3 in the solvent/injection/48 hrs). All the treatments were performed by intraperitoneal injection for 13 successive days.
# The inoculation of NCI-H460 cells (tumoral volume of 100 to 150 mm^3), mice (n=35) were randomized in 7 groups comprising 5 mice each. […] All the treatments were performed by intraperitoneal injection for 13 successive days.
# [5] = target: T1, CD151; experiment: CD151 in lysates of NCI-H460 xenografts (Western blot); format: in vivo, mice; conditions: 10 mg/kg every other day for 13 days
# Description: (§1) In lysates from xenografts NCI-H460 cells from mice treated for 13 days every other day by P3 or P4 (10 mg/kg), a decrease of CD151 level is observed respectively of 73% and 50% compared to mice treated with the solvent (FIGS. 12A and B). No change in CD9P-1 was observed (FIG. 12A).
# [6] = system: endostatin; experiment: Endostatin production by HUVECs (ELISA); format: cell-based, human; conditions: inhibitor of MMPs GM6001 alone; FIG. 16
# Description: HUVECs were transfected with siRNA using transfecting agent GENJET according to the manufacturer's instructions. After 48 hrs of incubation, supernatants were collected, protein expression tested by western blots and endostatin quantified.
# Endostatin levels were quantified by ELISAs on lysates of HUVECs incubated at rising concentrations of P3 or PCT for 48 hrs.
# In order to evaluate the role of metalloproteinases (MMPs) in endostatin production, a polyvalent inhibitor of MMPs, GM6001 was used. The concentration of endostatin in supernatants is at 6.2 ng/mg of protein of the lysates/48 hrs. […] GM6001 inhibits endostatin production induced by P3. MMPs might then be implicated in endostatin production induced by P3.
# HUVECs were incubated for 48 hrs in an EGM2-MV media with an anti-CD151 antibody (11G5a) or an irrelevant antibody (negative control unable to recognize any protein). Then endostatin levels were measured by ELISA in supernatants.
# HUVECs cells were transfected with specific siRNA of CD151 and CD9. Protein expression was analyzed in western blots. In parallel, endostatin levels were measured by ELISA in supernatants. […] Levels of endostatin in supernatant of HUVECs cells transfected with siRNA were measured. […] On the contrary, levels of endostatin increased at 9.4 ng/mg of protein lysates/48 hrs in HUVECs depleted in CD151 (FIG. 18B). CD151 is thus involved in the production of endostatin.
# [7] = system: Calu-6 cells; experiment: Tumor volume in vivo, Calu-6 xenograft; design: species or system mice; conditions: CDDP alone 5 mg/kg i.p. every other day for 16 days
# Description: All experiments were reviewed by Genopole's institutional animal care and use committee, and performed in accordance with institutional guidelines for animal care. Female BALB/c nu/nu mice (n=24) were used at 5-6 weeks of age. The animals were housed in laminar air-flow cabinets under pathogen-free conditions with a 14 hrs light/10 hrs dark schedule, and fed autoclaved standard chow and water ad libitum. Calu-6 cells (5×10^6 cells in 200 μl of serum-free RPMI) were subcutaneously injected into the right flank of mice. After engraftment (10 days), tumor volume (TV) was measured (Balsari et al, Eur J Cancer. 2004 May; 40(8):1275-81) and animals were randomized and separated into four groups of six animals each, to be treated by i.p. injection (200 μl per injection) every other day for 16 days (eight injections). Control mice (group 1) received the vehicle (0.9% saline). […] Pegylated peptide 4 (P4-PEG) was dissolved in vehicle at 1 mg/ml and injected at a dose of 10 mg/kg (group 3). In group 4, mice received both CDDP and P4-PEG. Tumor volume and body weight were measured every other day over the treatment period (16 days).
# [8] = system: UMUC-3 cells; experiment: Tumor growth test in vivo, UMUC-3 xenograft (no CD9P-1 expression); design: species or system mice; conditions: cisplatin 2.5 mg/kg i.p.; 13 days
# Description: Tumor sizes were measured and tumor volume was calculated. Mice were weighted to detect symptoms of pain.
# The effect of P3 was then tested on the tumor growth in an in vivo model of xenograft of UMUC-3.
# [9] = system: CD9P-1; experiment: CD9P-1 in homogenates of Matrigel implants enriched with NCI-H460 (Western blot); format: in vivo, mice; conditions: 10 mg/kg for 12 days
# Description: (§2) Analysis of the expression of CD151 and CD9P-1 were performed on western blots on homogenates of implants of Matrigel® enriched with NCI-H460. CD151 profile is characterized by 2 bands on western blots; one at 28 kDa corresponds to CD151 and another one at 26 kDa corresponding to a degraded product of CD151.
# [10] = system: CD151; experiment: CD151 in homogenates of Matrigel implants enriched with NCI-H460 (Western blot); format: in vivo, mice; conditions: 10 mg/kg for 12 days
# Description: as §2
# [11] = target: T2, CD9P-1; experiment: CD9P-1 in lysates of NCI-H460 xenografts (Western blot); format: in vivo, mice; conditions: 10 mg/kg every other day for 13 days
# Description: as §1
# [12] = system: HUVECs; experiment: Capillaries formation by HUVECs on Matrigel; format: cell-based, human; conditions: 6.5 μM, 13 μM and 33 μM, 18 h
# Description: Evaluating the formation of capillaries on Matrigel® was performed by angiogenesis test in vitro described in Grant et al (1989 Cell 58, 933-943). Matrigel® was dropped down the wells of the 96 well plates and maintained for 30 min at 37° C. for the Matrigel® solidification. HUVECs cells were then seeded and 50 μL, of peptide added.
# Plates were then incubated for 18 hrs at 37° C. cells were then washed with calcein solution (50 μL/well at 8 μM) and incubated for 20 min. HUVECs alive metabolize calcein in a green fluorescent component.
# Peptides were added to the culture medium (EGM2-MV) at concentrations 6.5 μM, 13 μM and 33 μM after inoculation of cells. Plates were incubated at 37° C. for 18 h. Fluorescence labeling was achieved by addition of calcein. Pictures were shot with a fluorescence microscope equipped with a camera (zoom ×40).
# [13] = system: endothelial cells; conditions: results disclosed in WO 2008/138894; cited from earlier work
molecule,measurement,setting,value
VSWFAVHSFGLDKAPVLLSS (Peptide 1) [P1],color of implants,[1],red color
same,effect on HUVECs proliferation,[2],No effect
GNYYCSVTPWVKS [P3],Weight difference between day 1 and day 13,[3],10.2 ± 9%
same,Weighted average of mice after 13 days of the treatment,[3],24.6 ± 0.4
same,Weight difference between day 1 and day 13,[3]; 10 mg/kg,6 ± 2%
same,Weighted average of mice after 13 days of the treatment,[3]; 10 mg/kg,26.2 ± 2.9
same,inhibition of the tumor growth in vivo,"[4]; Example 5, P3 200 μL of 1 mg/mL /injection/48 hrs i.p.",64.79±4.37%
same,inhibition of HUVECs proliferation,"[2]; 66 μM, n=3",50%±1.2%
same,decrease of CD151 level compared to mice treated with the solvent,[5],73%
CNC(=O)[C@H](Cc1c[nH]c2ccccc12)NC(=O)[C@@H](CC(=O)NO)CC(C)C [GM6001],concentration of endostatin in supernatants,[6],4.4 ng/mg of protein of the lysates/48 hrs
same,decrease of endostatin compared to the control,[6],about 30%
"N.N.[Cl][Pt][Cl] [cisplatin, Cis-diammine platinum II dichloride]",average tumoral volume,[4]; cisplatin 2.5 mg/kg i.p.,1017±119.8 mm^3
same,average tumoral volume,[4]; cisplatin alone 5 mg/kg i.p.,626±118.5 mm^3
same,tumor volume,[7],significant decrease in tumor volume
same,tumors under treatment,[8],reduced
IHSKPVFITVKMDVLNA [P4],CD9P-1 level,[9],does not change
same,inhibition of hemoglobin amount in implants compared to group 1 (solvent),[1],29.2±8.4%
same,color of implants,[1],yellow color with some red points
same,"decrease of the band corresponding to CD151 (28 kDa, normalized to GAPDH, vs solvent)",[10],51%
same,change in CD9P-1,[11],No change
same,capillary tubes formation (capillaries length and junctions number),[12],significant decrease of both capillaries length and junctions number
"168A-T2: fragment of the extracellular domain of protein 168A (CD9P-1) (protein, peptide 168A-T2) MAFDVSWFAVHSFGLDKAPVLLSSLDRKGIVTTSRRDWKSDLSLERVSVLEFLLQVHGSEDQDFGNYYCSVTPWVKSPTGSWQKEAEIHSKPVFITVKMDVLNAFKYP",potency relative to the anti-VEGF mAb and/or VEGF receptor (KDR)-based identified peptides,[13],at least 600 fold

# Reference: US20170173106A1, “Polypeptide Fragments of 168A-T2 and Compositions Comprising Them for Use in Treating Cancer” (GENE SIGNAL INTERNATIONAL SA, priority 2014, published 2017)
